Test results reported in EP4813991A1 (iLeadBMS Co., Ltd., priority 2023, dated 2025).
Like-named read-outs stand apart in the source and are kept apart here.

Assays:
[1] = target: T1, CDK12 (Homo sapiens, UniProt Q9NYV4); test: CDK12 kinase inhibitory activity assay (33P-ATP filter binding); assay type: biochemical
Method: (§1) Before initiating the CDK12 and CDK13 kinase reactions, each Example compound was dissolved and diluted in DMSO as a solvent across 9 concentration ranges at room temperature. The diluted solutions were then incubated with a mixture of kinase and substrate (and cofactors, if required) for 20 minutes. Next, radioisotope-labeled ATP (^33P-gamma-ATP) was added to proceed with the kinase reaction at room temperature for 120 minutes. After the reaction was completed, the reaction mixture was transferred to a filter paper that binds the radioisotope-labeled catalytic product (^33P-substrate). Unreacted ^33P-ATP was removed by washing with 0.75 % phosphoric acid, and then the radioactive phosphorylated substrate remaining on the filter paper was measured. Kinase activity data were expressed as a percentage of the kinase activity remaining in the test sample compared to a DMSO control group. The half-maximal inhibitory concentration (IC50) for each kinase was calculated using Prism (Graphpad) software.

[2] = target: CDK13 (Homo sapiens, UniProt Q14004); test: CDK13 kinase inhibitory activity assay (33P-ATP filter binding); assay type: biochemical
Method: as §1

[3] = target: T1, CDK12; test: Cellular CDK12 inhibitory activity assay (Ser2 phosphorylation of RNA polymerase II subunit B1 CTD in MDA-MB-231 cells); assay type: cell-based; set-up: using MDA-MB-231 breast cancer cells; endogenous in cells; host or cells: MDA-MB-231; conditions: MDA-MB-231 cells, 6 hours treatment; read-out: pRpbl CTD S2 IC50
Method: MDA-MB-231 cells were dispensed into a 96-well plate at 100 µL of cell suspension per well using L-15 (Invitrogen) medium containing 10 % FBS, followed by overnight incubation in a cell incubator at 37 °C and 0 % CO2. The next day, each Example compound dissolved in DMSO across 9 concentration ranges and a DMSO control group were treated on the MDA-MB-231 cells at 37 °C and 0 % CO2 for 6 hours. After the compound treatment, the medium in the 96-well plate was removed, and 60 µL of a fixing solution (4.0 % paraformaldehyde in PBS) was added to each well, followed by standing for 20 minutes. After removing the fixing solution and washing with PBS, 60 µL of PBS containing 0.1 % Triton X-100 was dispensed into each well, followed by shaking at room temperature for 15 minutes. After washing with PBS, 100 µL of blocking buffer was added, followed by shaking at room temperature for 1 hour. After removing the blocking buffer, primary antibodies, which are RNA polymerase II subunit B1 phospho-Ser2 (1:500, Cell signaling technology) and RNA polymerase II subunit B1 carboxy-terminal domain (1:200, Cell signaling technology), were added at 60 µL per well and reacted overnight at 4 °C. After adding 150 µL of PBS containing 0.1 % Triton X-100 and washing at least twice by shaking at room temperature for 5 minutes, 60 µL of a secondary antibody was added, followed by shaking at room temperature for 1 hour while blocking light. After adding 150 µL of PBS containing 0.1 % Triton X-100 and washing at least twice by shaking at room temperature for 5 minutes, 150 µL of PBS was added again, followed by washing at least twice by shaking at room temperature for 5 minutes. The plate was scanned using a Li-COR Odyssey machine with the wells filled with PBS. IC50 values were calculated by fitting a dose-response curve using a 4-parameter model of Prism (Graphpad) software.

[4] = tested on: MDA-MB-231 breast cancer cells; test: Proliferation inhibitory activity assay against MDA-MB-231 breast cancer cells; assay type: cell-based; conditions: Homo sapiens, 72 hours, CellTiter Glo, relative IC50
Method: Experiments were performed using the MDA-MB-231 breast cancer cell line to measure the cell proliferation inhibitory ability of each Example compound. MDA-MB-231 cells were dispensed into a 96-well plate at 100 µL of cell suspension per well using L-15 (Invitrogen) medium containing 10 % FBS, followed by incubation in a cell incubator at 37 °C and 0 % CO2. The next day, each Example compound dissolved and diluted in DMSO across 9 concentration ranges and a DMSO control group were treated on the cells for 72 hours. After the compound treatment was completed, 100 µL of CellTiter Glo (Promega) reagent was added to each well of the 96-well plate, followed by shaking for 10 minutes and standing at room temperature for 10 minutes. Luminescence signals were measured after inserting the 96-well plate into an Envision plate reader (PerkinElmer). Relative IC50 values were calculated by fitting a dose-response curve using XLfit (IDBS Ltd) software.
The breast cancer cell proliferation inhibitory activities of the Example compounds measured by the above method were evaluated according to the following criteria, and the results are presented in Table 13.

[5] = kinase reaction 120 minutes, 33P-gamma-ATP, read-out: CDK12 IC50
[6] = kinase reaction 120 minutes, 33P-gamma-ATP, read-out: CDK13 IC50

Sequence of CDK13 (Q14004 whole entry, species assumed): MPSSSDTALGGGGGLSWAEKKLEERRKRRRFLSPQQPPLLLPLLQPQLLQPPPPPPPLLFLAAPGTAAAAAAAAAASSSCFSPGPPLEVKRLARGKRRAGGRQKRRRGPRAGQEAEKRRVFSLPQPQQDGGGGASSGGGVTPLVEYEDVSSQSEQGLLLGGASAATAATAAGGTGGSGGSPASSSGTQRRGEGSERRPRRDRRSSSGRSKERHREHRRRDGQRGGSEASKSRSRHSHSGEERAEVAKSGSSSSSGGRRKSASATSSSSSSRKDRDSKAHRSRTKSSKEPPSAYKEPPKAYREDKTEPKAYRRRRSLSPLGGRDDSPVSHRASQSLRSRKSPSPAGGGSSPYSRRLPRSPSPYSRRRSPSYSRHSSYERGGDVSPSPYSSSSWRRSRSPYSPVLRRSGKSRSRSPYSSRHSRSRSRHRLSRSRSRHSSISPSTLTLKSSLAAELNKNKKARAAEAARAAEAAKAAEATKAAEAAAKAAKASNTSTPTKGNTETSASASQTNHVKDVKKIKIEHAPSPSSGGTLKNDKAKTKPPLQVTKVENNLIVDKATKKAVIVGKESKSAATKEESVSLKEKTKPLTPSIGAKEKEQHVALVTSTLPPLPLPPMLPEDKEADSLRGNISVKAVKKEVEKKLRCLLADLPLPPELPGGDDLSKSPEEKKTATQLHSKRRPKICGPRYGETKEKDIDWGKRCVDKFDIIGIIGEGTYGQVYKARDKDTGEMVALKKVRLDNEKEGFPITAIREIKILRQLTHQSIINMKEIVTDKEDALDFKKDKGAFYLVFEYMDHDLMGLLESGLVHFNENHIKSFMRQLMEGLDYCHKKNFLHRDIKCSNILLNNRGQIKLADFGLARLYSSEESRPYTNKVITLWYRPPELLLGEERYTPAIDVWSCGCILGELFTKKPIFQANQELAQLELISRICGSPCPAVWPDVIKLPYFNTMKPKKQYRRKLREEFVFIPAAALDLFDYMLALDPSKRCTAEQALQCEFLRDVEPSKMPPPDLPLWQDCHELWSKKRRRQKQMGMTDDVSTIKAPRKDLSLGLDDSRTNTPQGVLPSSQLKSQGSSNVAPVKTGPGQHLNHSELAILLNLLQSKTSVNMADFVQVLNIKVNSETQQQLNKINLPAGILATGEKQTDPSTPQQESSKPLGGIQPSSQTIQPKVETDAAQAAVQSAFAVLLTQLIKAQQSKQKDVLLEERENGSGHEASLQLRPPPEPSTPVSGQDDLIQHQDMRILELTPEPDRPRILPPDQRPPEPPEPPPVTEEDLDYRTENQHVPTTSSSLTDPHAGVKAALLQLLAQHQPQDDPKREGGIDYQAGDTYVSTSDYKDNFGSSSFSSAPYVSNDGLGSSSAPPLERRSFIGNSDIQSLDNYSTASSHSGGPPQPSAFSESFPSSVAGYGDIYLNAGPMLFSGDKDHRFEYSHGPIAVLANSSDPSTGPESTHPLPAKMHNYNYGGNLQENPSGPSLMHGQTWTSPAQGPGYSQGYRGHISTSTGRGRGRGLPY
Sequence of CDK13 (O75909 whole entry partner, species assumed): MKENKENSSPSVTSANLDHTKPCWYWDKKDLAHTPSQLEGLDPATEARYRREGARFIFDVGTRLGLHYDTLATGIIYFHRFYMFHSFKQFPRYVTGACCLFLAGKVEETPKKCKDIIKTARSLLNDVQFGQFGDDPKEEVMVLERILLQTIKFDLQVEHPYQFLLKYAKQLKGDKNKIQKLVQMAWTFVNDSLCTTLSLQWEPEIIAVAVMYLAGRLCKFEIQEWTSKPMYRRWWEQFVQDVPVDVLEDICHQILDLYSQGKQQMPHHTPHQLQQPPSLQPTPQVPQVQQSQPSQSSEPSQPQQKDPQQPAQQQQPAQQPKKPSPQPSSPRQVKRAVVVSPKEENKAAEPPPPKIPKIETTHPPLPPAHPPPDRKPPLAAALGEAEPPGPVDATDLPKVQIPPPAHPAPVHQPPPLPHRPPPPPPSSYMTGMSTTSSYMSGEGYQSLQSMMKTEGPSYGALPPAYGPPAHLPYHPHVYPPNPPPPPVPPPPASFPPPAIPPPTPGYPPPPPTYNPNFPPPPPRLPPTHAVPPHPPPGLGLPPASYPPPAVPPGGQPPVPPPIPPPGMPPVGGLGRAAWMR
T1 sequence (Q9NYV4 whole entry, species assumed): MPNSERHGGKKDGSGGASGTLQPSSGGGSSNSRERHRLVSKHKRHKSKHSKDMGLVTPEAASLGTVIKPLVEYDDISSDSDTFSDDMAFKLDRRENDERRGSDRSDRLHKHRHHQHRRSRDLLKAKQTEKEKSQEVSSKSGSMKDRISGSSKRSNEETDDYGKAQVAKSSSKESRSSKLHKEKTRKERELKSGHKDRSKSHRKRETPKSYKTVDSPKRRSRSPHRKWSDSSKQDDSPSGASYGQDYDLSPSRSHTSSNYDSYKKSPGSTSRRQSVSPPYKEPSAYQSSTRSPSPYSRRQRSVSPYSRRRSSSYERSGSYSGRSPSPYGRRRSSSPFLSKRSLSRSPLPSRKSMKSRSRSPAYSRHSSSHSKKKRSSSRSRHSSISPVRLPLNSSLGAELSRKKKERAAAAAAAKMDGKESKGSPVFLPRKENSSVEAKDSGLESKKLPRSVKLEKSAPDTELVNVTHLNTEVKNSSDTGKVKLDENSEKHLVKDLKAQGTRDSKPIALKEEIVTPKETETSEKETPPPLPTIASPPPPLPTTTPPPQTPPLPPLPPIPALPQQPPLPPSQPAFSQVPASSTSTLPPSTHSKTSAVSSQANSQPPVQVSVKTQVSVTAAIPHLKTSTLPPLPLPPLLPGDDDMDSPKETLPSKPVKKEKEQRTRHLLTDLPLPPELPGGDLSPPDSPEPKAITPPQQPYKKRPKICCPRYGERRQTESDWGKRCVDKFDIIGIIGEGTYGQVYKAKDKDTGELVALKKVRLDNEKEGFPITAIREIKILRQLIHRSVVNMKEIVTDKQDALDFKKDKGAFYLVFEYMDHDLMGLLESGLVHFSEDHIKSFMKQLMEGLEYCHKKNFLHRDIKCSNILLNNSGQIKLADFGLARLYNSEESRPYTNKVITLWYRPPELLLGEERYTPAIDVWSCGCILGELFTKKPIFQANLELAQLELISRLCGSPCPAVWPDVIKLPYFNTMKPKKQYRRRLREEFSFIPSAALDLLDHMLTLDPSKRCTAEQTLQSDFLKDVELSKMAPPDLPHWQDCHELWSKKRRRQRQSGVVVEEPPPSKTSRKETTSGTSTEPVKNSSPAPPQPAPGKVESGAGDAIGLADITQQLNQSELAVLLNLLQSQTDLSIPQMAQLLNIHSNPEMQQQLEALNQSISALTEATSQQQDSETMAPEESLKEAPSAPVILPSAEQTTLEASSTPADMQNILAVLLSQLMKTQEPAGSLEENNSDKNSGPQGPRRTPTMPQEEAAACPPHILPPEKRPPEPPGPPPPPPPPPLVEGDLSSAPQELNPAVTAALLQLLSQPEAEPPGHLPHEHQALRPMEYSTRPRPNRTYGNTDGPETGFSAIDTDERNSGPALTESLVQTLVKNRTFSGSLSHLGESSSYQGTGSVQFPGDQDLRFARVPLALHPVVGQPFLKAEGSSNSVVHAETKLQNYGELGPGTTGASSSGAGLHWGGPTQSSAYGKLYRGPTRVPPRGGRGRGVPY
T1 sequence (O75909 whole entry partner, species assumed): as the sequence (O75909 whole entry partner, species assumed) above

IC50 [1, 5] [nM] | IC50 [2] [nM] | IC50 [3] [nM] | IC50 [4] [nM] | IC50 [2, 6] [nM] | Compound | IC50 [1] [nM]
100 to 500 | < 100 | 300 to 3000 | 50 to 500 |  | C#Cc1cnc2c(NCc3nc4ccc(F)c(F)c4[nH]3)cc(N3CCOCC3)nn12 [Example 1, N-((6,7-difluoro-1H-benzo[d]imidazol-2-yl)methyl)-3-ethynyl-6-morpholinoimidazo[1,2-b]pyridazin-8-amine] | 
100 to 500 | 100 to 500 | 300 to 3000 | 50 to 500 |  | Fc1ccc2nc(CNc3cc(N4CCOCC4)nn4c(CC(F)(F)F)cnc34)[nH]c2c1F [Example 2, N-((6,7-difluoro-1H-benzo[d]imidazol-2-yl)methyl)-6-morpholino-3-(2,2,2-trifluoroethyl)imidazo[1,2-b]pyridazin-8-amine] | 
> 500 | 100 to 500 | 300 to 3000 | 50 to 500 |  | CC(C)c1cnc2c(NCc3nc4ccc(F)c(F)c4[nH]3)cc(N3CCOCC3)nn12 [Example 3, N-((6,7-difluoro-1H-benzo[d]imidazol-2-yl)methyl)-3-isopropyl-6-morpholinoimidazo[1,2-b]pyridazin-8-amine] | 
> 500 |  | > 3000 | > 500 | 100 to 500 | Cc1cnc2c(NCc3nc4ccc(F)c(F)c4[nH]3)cc(N3CCOCC3)nn12 [Example 4, N-((6,7-difluoro-1H-benzo[d]imidazol-2-yl)methyl)-3-methyl-6-morpholinoimidazo[1,2-b]pyridazin-8-amine] | 
100 to 500 |  | 300 to 3000 | 50 to 500 | < 100 | CCc1cnc2c(NCc3nc4ccc(F)c(F)c4[nH]3)cc(N3CCOCC3)nn12 [Example 5, N-((6,7-difluoro-1H-benzo[d]imidazol-2-yl)methyl)-3-ethyl-6-morpholinoimidazo[1,2-b]pyridazin-8-amine] | 
< 100 |  | < 300 | ≤ 50 | < 100 | Fc1ccc2nc(CNc3cc(N4CCOCC4)nn4c(C(F)(F)F)cnc34)[nH]c2c1F [Example 6, N-((6,7-difluoro-1H-benzo[d]imidazol-2-yl)methyl)-6-morpholino-3-(trifluoromethyl)imidazo[1,2-b]pyridazin-8-amine] | 
100 to 500 |  | 300 to 3000 | ≤ 50 | < 100 | Fc1ccc2nc(CNc3cc(N4CCC4)nn4c(C(F)(F)F)cnc34)[nH]c2c1F [Example 15] | 
> 500 |  | 300 to 3000 | 50 to 500 | 100 to 500 | CC#Cc1cnc2c(NCc3nc4ccc(F)c(F)c4[nH]3)cc(-c3cnc(N)nc3)nn12 [Example 20, 6-(2-aminopyrimidin-5-yl)-N-((6,7-difluoro-1H-benzo[d]imidazol-2-yl)methyl)-3-(prop-1-yn-1-yl)imidazo[1,2-b]pyridazin-8-amine] | 
 |  | 300 to 3000 | 50 to 500 |  | N#CC1CN(c2cc(NCc3nc4ccc(F)c(F)c4[nH]3)c3ncc(C(F)(F)F)n3n2)C1 [Example 54, 1-(8-(((6,7-difluoro-1H-benzo[d]imidazol-2-yl)methyl)amino)-3-(trifluoromethyl)imidazo[1,2-b]pyridazin-6-yl)azetidine-3-carbonitrile] | 

Compound | IC50 [1, 5] [nM] | IC50 [2] [nM] | IC50 [3] [nM] | IC50 [4] [nM] | IC50 [2, 6] [nM] | IC50 [1] [nM]
Fc1ccc2nc(CNc3cc(N4CC5CCC(C4)O5)nn4c(C(F)(F)F)cnc34)[nH]c2c1F [Example 9] |  |  | < 300 | ≤ 50 | < 100 | < 100
Fc1ccc2nc(CNc3cc(N4CC5CCC(C4)N5)nn4c(C(F)(F)F)cnc34)[nH]c2c1F [Example 10, 6-(3,8-diazabicyclo[3.2.1]octan-3-yl)-N-((6,7-difluoro-1H-benzo[d]imidazol-2-yl)methyl)-3-(trifluoromethyl)imidazo[1,2-b]pyridazin-8-amine] | < 100 |  | < 300 | ≤ 50 | < 100 | 
Fc1ccc2nc(CNc3cc(N4CC5CCC4CO5)nn4c(C(F)(F)F)cnc34)[nH]c2c1F (stereo not shown) [Example 12] |  |  | < 300 | ≤ 50 | < 100 | < 100
